Assay results: patent publication US11926613B2, “Kinase inhibitors for the treatment of central and peripheral nervous system disorders” (UNIVERSITY OF MIAMI, priority 2017, dated 2024)
pEC50: −log10 of the molar value. Like-named read-outs stand apart in the source and are kept apart here.

Key:
[1] = tested on: neurons from hippocampi of E18 rat embryos; assay: Neurite growth length (% NTL) in cultured E18 rat hippocampal neurons, 9-point dose response, 48 hours; assay type: cell-based; details: for activity at 0.078 µM / activity at 0.156 µM / activity at 0.312 µM / activity at 0.625 µM / activity at 1.25 µM / activity at 2.5 µM / activity at 5 µM / activity at 10 µM / activity at 20 µM: Rattus norvegicus, Neuron, 48 h
In short: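 Dissociated E18 rat hippocampal neurons at 1500 cells/well on PDL were exposed 48 h to 9 concentrations from 20 μM down to 0.078125 μM. After PFA fixation and βIII-tubulin/Hoechst staining, ArrayScan imaging traced neurites in at least 200–300 neurons per condition to give % NTL.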

Primary Neurons = assay: HCS neurite outgrowth assay (High Content Screening with Primary Neurons); assay type: cell-based

| SMILES | neurite growth length (% NTL) ([1]; 78 nM) | neurite growth length (% NTL) ([1]; 156 nM) | neurite growth length (% NTL) ([1]; 312 nM) | neurite growth length (% NTL) ([1]; 625 nM) | neurite growth length (% NTL) ([1]; 1.25 μM) | neurite growth length (% NTL) ([1]; 2.5 μM) | neurite growth length (% NTL) ([1]; 5 μM) | neurite growth length (% NTL) ([1]; 10 μM) | neurite growth length (% NTL) ([1]; 20 μM) | pEC50 (Primary Neurons) | activity at 0.078 µM ([1]; 78 nM) | activity at 0.156 µM ([1]; 156 nM) | activity at 0.312 µM ([1]; 312 nM) | activity at 0.625 µM ([1]; 625 nM) | activity at 1.25 µM ([1]; 1.25 μM) | activity at 2.5 µM ([1]; 2.5 μM) | activity at 5 µM ([1]; 5 μM) | activity at 10 µM ([1]; 10 μM) | activity at 20 µM ([1]; 20 μM) | pEC50 (Primary Neurons; Primary neuron) |
| --- | --- | --- | --- | --- | --- | --- | --- | --- | --- | --- | --- | --- | --- | --- | --- | --- | --- | --- | --- | --- |
| COc1ccc(O)c(C(=O)c2ccc(C(=O)N[C@H]3CNC[C@@H]3NC(=O)c3ccncc3)cc2)c1F (stereo in doubt) [Example A34, N-[(3S,4S)-4-[4-(2-fluoro-6-hydroxy-3-methoxybenzoyl)benzamido]pyrrolidin-3-yl]pyridine-4-carboxamide] | 102.90 % NTL | 102.77 % NTL | 92.06 % NTL | 92.27 % NTL | 95.84 % NTL | 105.94 % NTL | 110.06 % NTL | 118.29 % NTL | 130.91 % NTL | 4.89 |  |  |  |  |  |  |  |  |  |  |
| O=C(N[C@@H]1CNC[C@H]1NC(=O)c1ccc(C(=O)c2cccc(Cl)c2O)cc1)c1ccncc1 [Example A71, N-[(3R,4R)-4-[4-(3-chloro-2-hydroxybenzoyl)benzamido]pyrrolidin-3-yl]pyridine-4-carboxamide] |  |  |  |  |  |  |  |  |  |  | 94.8% | 99% | 105% | 109% | 102% | 109% | 119% | 117% | 124% | 5.67 |
| O=C(N[C@@H]1CCCCC[C@H]1NC(=O)c1ccc(C(=O)c2ccccc2)cc1)c1ccncc1 [Example A23, N-[(1R,2R)-2-(4-benzoylbenzamido)cycloheptyl]pyridine-4-carboxamide] |  |  |  |  |  |  |  |  |  |  | 98.3% | 102% | 95.6% | 93.6% | 97% | 101% | 105% | 117% | 144% | 4.77 |
| COc1ccc(OC)c(C(=O)c2ccc(C(=O)N[C@@H]3CCCC[C@H]3NC(=O)c3ccncc3)cc2)c1F [Example A21, N-[(1R,2R)-2-[4-(2-fluoro-3,6-dimethoxybenzoyl)benzamido]cyclohexyl] pyridine-4-carboxamide] |  |  |  |  |  |  |  |  |  |  | 84.7% | 83.3% | 79.8% | 81.8% | 86.8% | 91.5% | 102% | 107% | 108% | 5.54 |
| COc1cccc(C(=O)c2ccc(C(=O)N[C@@H]3CNC[C@H]3NC(=O)c3ccnc(N)n3)cc2)c1O [Example A72, 2-amino-N-[(3R,4R)-4-[4-(2-hydroxy-3-methoxybenzoyl)benzamido]pyrrolidin-3-yl]pyrimidine-4-carboxamide] |  |  |  |  |  |  |  |  |  |  | 96.4% | 94% | 97.7% | 108% | 106% | 105% | 113% | 127% | 157% | < 4.70 |
| O=C(N[C@@H]1CNC[C@H]1NC(=O)c1ccncc1)c1ccccc1 (stereo in doubt) [Example A20, N-[(3R,4R)-4-benzamidopyrrolidin-3-yl]pyridine-4-carboxamide] |  |  |  |  |  |  |  |  |  |  | 86.2% | 81.5% | 77.7% | 86.1% | 88.4% | 90.2% | 90.7% | 93.8% | 103% | 5.02 |
| Nc1nccc(C(=O)N[C@@H]2CNC[C@H]2NC(=O)c2ccc(C(=O)c3cc(Cl)ccc3O)cc2)n1 [Example A84, 2-amino-N-[(3R,4R)-4-[4-(5-chloro-2-hydroxybenzoyl)benzamido]pyrrolidin-3-yl]pyrimidine-4-carboxamide] |  |  |  |  |  |  |  |  |  |  | 115% | 118% | 125% | 139% | 153% | 165% | 270% | 492% | 564% | 5.16 |
